The values below are quoted from earlier work in CN101444491A, “奥扎格雷钠微球冻干制剂及其制备方法” (HAINAN SHU ER PHARMACEUTICAL RESEARCH Co Ltd, priority 2008, dated 2009).

The conditions of data set [1]: after conversion into sodium salt (JP2001316265).

Molecules are shown by their SMILES.

For `O=C(O)/C=C/c1ccc(Cn2ccnc2)cc1` [奥扎格雷钠, 钠盐], the “stability in aqueous solution” value in data set [1] is on record as “稳定性下降”.
Regarding `O=C(O)/C=C/c1ccc(Cn2ccnc2)cc1` [奥扎格雷], the solubility in water result is “溶解度较小”.
